Assay results from patent US12226412B2, “Heteroaryl-ketone fused azadecalin glucocorticoid receptor modulators” (Corcept Therapeutics, Inc., priority 2012, dated 2025).
Like-named read-outs stand apart in the source and are kept apart here.

Tests used:
[1] = system: induction of TAT by dexamethasone in HepG2 cells; experiment: HepG2 tyrosine aminotransferase (TAT) assay; type: cell-based, human
Protocol: Example 21. HepG2 Tyrosine Aminotransferase (TAT) Assay
Glucocorticoid mediated activation of TAT occurs by transactivation of glucocorticoid response elements in the TAT promoter by glucocorticoid receptor agonist complex.
TAT activity was measured as outlined in the literature by A. Ali et al., J. Med. Chem., 2004, 47, 2441-2452.
HepG2 cells were cultured using MEME media supplemented with 10% (v/v) foetal bovine serum; 2 mM L-glutamine and 1% (v/v) NEAA at 37° C., 5%/95% (v/v) CO2/air. The HepG2 cells were counted and adjusted to yield a density of 0.125×10^6 cells/ml in RPMI 1640 without phenol red, 10% (v/v) charcoal stripped FBS, 2 mM L-glutamine and seeded at 25,000 cells/well in 200 μl into 96 well, sterile, tissue culture micro titre plates, and incubated at 37° C., 5% CO2 for 24 hours
Growth media was removed and replaced with assay media {RPMI 1640 without phenol red, 2 mM L-glutamine+10 μM forskolin}. […] Compounds were serially half log diluted in 100% (v/v) dimethylsupfoxide from a 10 mM stock.
HepG2 cells were then lysed with 30 μl of cell lysis buffer containing a protease inhibitor cocktail for 15 minutes at 4° C. 155 μl of substrate mixture was then added containing 5.4 mM Tyrosine sodium salt, 10.8 mM alpha ketoglutarate and 0.06 mM pyridoxal 5′ phosphate in 0.1M potassium phosphate buffer (pH 7.4). After 2 hours incubation at 37° C. the reaction was terminated by the addition of 15 μl of 10M aqueous potassium hydroxide solution, and the plates incubated for a further 30 minutes at 37° C. The TAT activity product was measured by absorbance at […].
[compound] and fitting the data to a 4 parameter logistic equation.

human recombinant GR = molecular target: T1, human recombinant GR (Homo sapiens, UniProt P04150); experiment: Human glucocorticoid receptor (GR) fluorescence polarisation (FP) binding assay
T1 construct: purchased PanVera P2812
T1 sequence (P04150 1-777): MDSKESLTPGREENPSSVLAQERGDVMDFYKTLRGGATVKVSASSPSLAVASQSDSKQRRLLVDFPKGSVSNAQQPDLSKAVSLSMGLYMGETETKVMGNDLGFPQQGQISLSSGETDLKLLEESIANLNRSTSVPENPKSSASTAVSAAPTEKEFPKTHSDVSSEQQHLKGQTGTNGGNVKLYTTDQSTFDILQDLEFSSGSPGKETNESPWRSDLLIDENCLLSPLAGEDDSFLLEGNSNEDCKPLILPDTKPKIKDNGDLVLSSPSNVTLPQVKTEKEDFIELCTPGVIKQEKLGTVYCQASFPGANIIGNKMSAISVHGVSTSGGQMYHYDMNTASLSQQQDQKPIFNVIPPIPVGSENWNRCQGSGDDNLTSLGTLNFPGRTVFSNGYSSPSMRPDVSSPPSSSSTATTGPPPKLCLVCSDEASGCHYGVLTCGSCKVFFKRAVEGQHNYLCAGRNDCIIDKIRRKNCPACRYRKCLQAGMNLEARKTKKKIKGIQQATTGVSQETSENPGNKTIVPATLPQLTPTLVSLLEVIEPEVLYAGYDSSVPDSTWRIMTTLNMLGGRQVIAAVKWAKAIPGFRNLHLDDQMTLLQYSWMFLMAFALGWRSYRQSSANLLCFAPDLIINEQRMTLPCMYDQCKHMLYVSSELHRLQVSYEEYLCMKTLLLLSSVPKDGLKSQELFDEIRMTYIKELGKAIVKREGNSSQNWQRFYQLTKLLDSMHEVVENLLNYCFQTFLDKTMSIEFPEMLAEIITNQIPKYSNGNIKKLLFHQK
Protocol: Human Glucocorticoid Receptor (GR) Fluorescence Polarisation (FP) Binding Assay
The following is a description of a FP assay for measuring compound inhibition of labelled glucocorticoid binding to the human recombinant GR.
The binding affinity of test compounds was determined using a FP binding assay using human recombinant GR (PanVera P2812) and a fluorescent labelled glucocorticoid ligand (Fluorome GS Red) (PanVera P2894). The presence of inhibitors prevents the formation of a GS Red/GR complex resulting in a decrease in the measured polarisation value. The change in polarisation value in the presence of test compounds is used to calculate the binding affinity of the compound for GR.
This assay was performed in 384 well, black, round-bottom, polypropylene micro titre plates in a final volume of 20 μl. The assay contained 5 μl 1 nM GR (final concentration), 5 μl 0.5 nM Fluorome GS Red (final concentration) in the presence of 10 μl test compounds. Positive control wells (high polarisation) receive, 10 μl 2% (v: v) DMSO vehicle (1% (v/v) final concentration)+5 μl 1 nM GR and 5 μl 0.5 nM Fluorome GS Red. […] Assay blank background wells (used for normalisation) receive 15 μl 1× GS screening buffer+5 μl GR.
Compounds were prepared as solubilised solids at 10 mM in DMSO. On the day of assay, an 8 point half-log serial dilution (55 μl DMSO+25 μl compound solution) was prepared. A 1:50 dilution (1 μl compound solution+49 μl 1× GR screening buffer) was prepared for each compound. The compounds were prepared at 2× final assay concentration.
The plates were mixed and incubated for 4 hour at room temperature.
10× GR screening buffer (100 mM potassium phosphate pH 7.4, 200 mM Na2MoO4, 1 mM EDTA, 20% (v/v) DMSO). To prepare 1× GR screening buffer, combine 1 ml 10× GR screening buffer (PanVera P2814)+1 ml stabilising peptide (PanVera P2815)+7.95 ml 4° C. MQ water. Add 50 μl 1M DTT, vortex and place on ice until use.

[2] = HepG2 cells, challenge of 100 nM dexamethasone, Ki from IC50 by Cheng and Prusoff equation
[3] = human recombinant GR, fluorescence polarisation binding assay, read-out: GR binding

Row | Ki (human recombinant GR; [3]) [nM] | Compound | Ki [1, 2] [nM] | Ki [1] [nM] | Ki (human recombinant GR) [nM]
1 | 0.5 to 1 | Cn1ccnc1C(=O)[C@]12Cc3cnn(-c4ccc(F)cc4)c3C=C1CCN(S(=O)(=O)c1ccc(C(F)(F)F)cc1)C2 [Example 1A, (R)-(1-(4-fluorophenyl)-6-((4-(trifluoromethyl)phenyl)sulfonyl)-4,4a,5,6,7,8-hexahydro-1H-pyrazolo[3,4-g]isoquinolin-4a-yl)(1-methyl-1H-imidazol-2-yl)methanone] | 20 to 100 |  | 
2 | > 1 | Cc1cnc(C(=O)[C@]23Cc4cnn(-c5ccc(F)cc5)c4C=C2CCN(S(=O)(=O)c2ccc(F)c(F)c2)C3)s1 [Example 12Q, (R)-(6-((3,4-difluorophenyl)sulfonyl)-1-(4-fluorophenyl)-4,4a,5,6,7,8-hexahydro-1H-pyrazolo[3,4-g]isoquinolin-4a-yl)(5-methylthiazol-2-yl)methanone] | < 20 |  | 
3 | < 0.5 | O=C(c1nccs1)[C@]12Cc3cnn(-c4ccc(F)cc4)c3C=C1CCN(S(=O)(=O)c1cc(F)c(F)c(F)c1)C2 [Example 12J, (R)-(1-(4-fluorophenyl)-6-((3,4,5-trifluorophenyl)sulfonyl)-4,4a,5,6,7,8-hexahydro-1H-pyrazolo[3,4-g]isoquinolin-4a-yl)(thiazol-2-yl)methanone] | 20 to 100 |  | 
4 | < 0.5 | CCc1ccnc(C(=O)[C@]23Cc4cnn(-c5ccc(F)cc5)c4C=C2CCN(S(=O)(=O)c2cccc(C#N)c2)C3)c1 [Example 11AU, (R)-3-((4a-(4-ethylpicolinoyl)-1-(4-fluorophenyl)-4a,5,7,8-tetrahydro-1H-pyrazolo [3,4-g]isoquinolin-6 (4H)-yl)sulfonyl)benzonitrile] | < 20 |  | 
5 | < 0.5 | N#Cc1ccc(S(=O)(=O)N2CCC3=Cc4c(cnn4-c4ccc(F)cc4)C[C@]3(C(=O)c3ccccn3)C2)cc1 [Example 2Q, (R)-4-((1-(4-fluorophenyl)-4a-picolinoyl-4a,5,7,8-tetrahydro-1H-pyrazolo[3,4-g]isoquinolin-6 (4H)-yl)sulfonyl)benzonitrile] | 20 to 100 |  | 
6 | < 0.5 | CN(C)C(=O)c1cccc(S(=O)(=O)N2CCC3=Cc4c(cnn4-c4ccc(F)cc4)C[C@]3(C(=O)c3ccccn3)C2)c1 [Example 14, (R)-3-((1-(4-fluorophenyl)-4a-picolinoyl-4a,5,7,8-tetrahydro-1H-pyrazolo[3,4-g]isoquinolin-6 (4H)-yl)sulfonyl)-N,N-dimethylbenzamide] | 20 to 100 |  | 

Second part, the compound before the results:

Row | Compound | Ki (human recombinant GR; [3]) [nM] | Ki [1, 2] [nM] | Ki [1] [nM] | Ki (human recombinant GR) [nM]
7 | Cc1nc(S(=O)(=O)N2CCC3=Cc4c(cnn4-c4ccc(F)cc4)C[C@]3(C(=O)c3cc(C(F)(F)F)ccn3)C2)cn1C [Example 11BV, (R)-(6-((1,2-dimethyl-1H-imidazol-4-yl)sulfonyl)-1-(4-fluorophenyl)-4,4a,5,6,7,8-hexahydro-1H-pyrazolo[3,4-g]isoquinolin-4a-yl)(4-(trifluoromethyl)pyridin-2-yl)methanone] | < 0.5 | < 20 |  | 
8 | Cn1ccc(S(=O)(=O)N2CCC3=Cc4c(cnn4-c4ccc(C(F)(F)F)cc4)C[C@]3(C(=O)c3ccccn3)C2)n1 [Example 11BT, (R)-(6-((1-methyl-1H-pyrazol-3-yl)sulfonyl)-1-(4-(trifluoromethyl)phenyl)-4,4a,5,6,7,8-hexahydro-1H-pyrazolo[3,4-g]isoquinolin-4a-yl)(pyridin-2-yl)methanone] | > 1 | ≥ 100 |  | 
9 | O=C(c1ccccn1)[C@]12Cc3cnn(-c4ccc(F)cc4)c3C=C1CCN(S(=O)(=O)c1ccc(Cl)c(C(F)(F)F)c1)C2 [Example 11BF, (R)-(6-((4-chloro-3-(trifluoromethyl)phenyl)sulfonyl)-1-(4-fluorophenyl)-4,4a,5,6,7,8-hexahydro-1H-pyrazolo[3,4-g]isoquinolin-4a-yl)(pyridin-2-yl)methanone] | < 0.5 | 20 to 100 |  | 
10 | O=C(c1cc(C(F)(F)F)ccn1)[C@]12Cc3cnn(-c4ccc(F)cc4)c3C=C1CCN(S(=O)(=O)c1cc(F)c(F)c(F)c1)C2 [Example 11BQ, (R)-(1-(4-fluorophenyl)-6-((3,4,5-trifluorophenyl)sulfonyl)-4,4a,5,6,7,8-hexahydro-1H-pyrazolo[3,4-g]isoquinolin-4a-yl)(4-(trifluoromethyl)pyridin-2-yl)methanone] | > 1 | < 20 |  | 
11 | O=C(c1ccccn1)[C@]12Cc3cnn(-c4ccc(F)cc4)c3C=C1CCN(S(=O)(=O)c1ccnc(C(F)(F)F)c1)C2 [Example 11BE, (R)-(1-(4-fluorophenyl)-6-((2-(trifluoromethyl)pyridin-4-yl)sulfonyl)-4,4a,5,6,7,8-hexahydro-1H-pyrazolo[3,4-g]isoquinolin-4a-yl)(pyridin-2-yl)methanone] | < 0.5 | 20 to 100 |  | 
12 | O=C(c1ccco1)[C@]12Cc3cnn(-c4ccc(F)cc4)c3C=C1CCN(S(=O)(=O)c1ccc(C(F)(F)F)cc1)C2 [Example 1G, (R)-(1-(4-fluorophenyl)-6-((4-(trifluoromethyl)phenyl)sulfonyl)-4,4a,5,6,7,8-hexahydro-1H-pyrazolo[3,4-g]isoquinolin-4a-yl)(furan-2-yl)methanone] |  |  | 20 to 100 | < 0.5
13 | Cc1cc(S(=O)(=O)N2CCC3=Cc4c(cnn4-c4ccc(F)cc4)C[C@]3(C(=O)c3ncc(C)s3)C2)n(C)n1 [Example 12U, (R)-(6-((1,3-dimethyl-1H-pyrazol-5-yl)sulfonyl)-1-(4-fluorophenyl)-4,4a,5,6,7,8-hexahydro-1H-pyrazolo[3,4-g]isoquinolin-4a-yl)(5-methylthiazol-2-yl)methanone] | > 1 | 20 to 100 |  | 
14 | Cc1cccc(S(=O)(=O)N2CCC3=Cc4c(cnn4-c4ccc(F)cc4)C[C@]3(C(=O)c3ccccn3)C2)n1 [Example 11O, (R)-(1-(4-fluorophenyl)-6-((6-methylpyridin-2-yl)sulfonyl)-4,4a,5,6,7,8-hexahydro-1H-pyrazolo[3,4-g]isoquinolin-4a-yl)(pyridin-2-yl)methanone] | < 0.5 | < 20 |  | 
15 | N#Cc1cccc(S(=O)(=O)N2CCC3=Cc4c(cnn4-c4ccc(F)cc4)C[C@]3(C(=O)c3ccccn3)C2)c1 [Example 11G, (R)-3-((1-(4-fluorophenyl)-4a-picolinoyl-4a,5,7,8-tetrahydro-1H-pyrazolo[3,4-g]isoquinolin-6 (4H)-yl)sulfonyl)benzonitrile] |  |  | < 20 | < 0.5
